Here are results for 6 molecules from ChEMBL document CHEMBL1201862, “PubChem BioAssay data set” (2004).

SMILES strings stand for the structures. Activity calls are given as the source filed them. Unless noted, the rule behind the calls is not given here.

One assay has as its target Albumin (Bos taurus, UniProt P02769). In words: Counterscreen for inhibitors of T-cell receptor (TCR)-CD3 interaction: Fluorescence-based biochemical high throughput dose response assay to identify inhibitors of T-cell receptor (TCR)-CD3 interaction using a TAMRA-labeled BSA probe. It counts as functional. (In general: Counterscreens check selectivity or assay interference.)

The target of assay [1] is T1, Alkaline phosphatase, tissue-nonspecific isozyme (Homo sapiens, UniProt P05186).
T1 sequence (P05186 whole entry): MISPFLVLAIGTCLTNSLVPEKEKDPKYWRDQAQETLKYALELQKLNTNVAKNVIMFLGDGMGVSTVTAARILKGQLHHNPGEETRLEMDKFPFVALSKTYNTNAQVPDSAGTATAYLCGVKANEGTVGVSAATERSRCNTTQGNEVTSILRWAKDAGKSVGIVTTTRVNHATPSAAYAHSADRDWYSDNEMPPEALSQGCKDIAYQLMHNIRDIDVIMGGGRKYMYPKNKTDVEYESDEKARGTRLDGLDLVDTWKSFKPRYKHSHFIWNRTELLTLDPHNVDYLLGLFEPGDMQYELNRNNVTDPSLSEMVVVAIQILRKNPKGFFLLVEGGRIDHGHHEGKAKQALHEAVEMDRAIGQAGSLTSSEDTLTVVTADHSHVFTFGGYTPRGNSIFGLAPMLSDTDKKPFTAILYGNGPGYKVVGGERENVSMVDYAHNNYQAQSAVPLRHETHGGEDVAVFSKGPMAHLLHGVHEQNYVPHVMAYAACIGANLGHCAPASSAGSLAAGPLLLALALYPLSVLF
In words: activation of tissue-nonspecific alkaline phosphatase – biochemical, TNAP isozyme, human IAP uHTS hits, selectivity assay for human IAP activator project, dose response (AID 488886).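 Also: potency of compounds raising TNAP activity as a selectivity check on IAP activators.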 The assay is classed as functional.

Assay [2] addresses Intestinal-type alkaline phosphatase (Mus musculus, UniProt P24822). Briefly: PubChem AID 488875. The assay is classed as functional.
Assay [3] has as its target T2, Intestinal-type alkaline phosphatase (Homo sapiens, UniProt P09923). Briefly: human intestinal alkaline phosphatase activators, dose response, biochemical, luminescence, uHTS hits (AID 463120). It counts as functional.
The target of assay [4] is T2, Intestinal-type alkaline phosphatase. Briefly: activation of human intestinal alkaline phosphatase – biochemical, luminescent, uHTS hits, set 2, dose response (AID 488817).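 Also: potency of activators that raise enzyme activity.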 The assay is classed as functional.
The target in assay [5] is T3, Botulinum neurotoxin type A (Clostridium botulinum (strain Hall / ATCC 3502 / NCTC 13319 / Type A), UniProt P0DPI1). Briefly: Confirmatory FRET assay using full length substrates for Botulinum neurotoxin light chain A protease, with Powder Set01. It counts as functional.
The target in a further assay is Lethal factor (Bacillus anthracis, UniProt P15917). Briefly: High-throughput multiplex microsphere dose response for inhibitors of toxin protease, specifically Lethal Factor protease, compounds from Powder Set 01. The assay is classed as functional, Bacillus anthracis str. A2012. Conditions: read-out: EC50_MICROM.
The target in assay [6] is T3, Botulinum neurotoxin type A. Briefly: High-throughput multiplex microsphere dose response for inhibitors of toxin protease, specifically Botulinum neurotoxin light chain A protease, compounds from Powder Set 01. It counts as functional, Clostridium botulinum A str. ATCC 3502. Conditions: read-out: EC50_MICROM.
Assay [7] has as its target Botulinum neurotoxin type F (Clostridium botulinum, UniProt P30996). Briefly: High-throughput multiplex microsphere dose response for inhibitors of toxin protease, specifically Botulinum neurotoxin light chain F protease, compounds from Powder Set 01. The assay is classed as functional, Clostridium botulinum Bf. Conditions: read-out: EC50_MICROM.
The nature of assay [8]: TNFa-induced NF-kB reporter signal decrease – HEK293 LMP1 reporter cells, dry powder, set 2, selectivity assay for EBV LMP1 NF-kB inhibitor project, dose response (AID 624369). It counts as functional.
The nature of assay [9]: inhibitors of EBV LMP1 NF-kappaB signaling – cell-based, luciferase reporter, luminescence, dry powder, set 2, dose response (AID 624376). It counts as functional.
Assay [10] deals with T4, Beta-lactamase (Salmonella choleraesuis (strain SC-B67), UniProt Q5J463). In words: Epi-absorbance-based counterscreen for selective VIM-2 inhibitors: dose response biochemical high throughput screening assay to identify inhibitors of TEM-1 serine-beta-lactamase.
Assay [11] addresses T5, Beta-lactamase (Pseudomonas aeruginosa, UniProt Q79MP6). Briefly: […] counterscreen for selective VIM-2 inhibitors: dose response biochemical high throughput screening assay to identify inhibitors of IMP-1 metallo-beta-lactamase.
The target of assay [12] is T5, Beta-lactamase. Briefly: inhibition of IMP-1 beta-lactamase activity – biochemical, epi-absorbance, selectivity assay for VIM-2 inhibitor project, dose response (AID 1920).
Assay [13] has as its target T4, Beta-lactamase. Briefly: Late stage results from the probe development efforts to identify selective inhibitors of VIM-2 metallo-beta-lactamase: probe results. Panel member name: Nitrocefin-based TEM-1 Inhibition Counterscreen.
For assay [14], the target named is T6, Beta Lactamase (Pseudomonas aeruginosa, UniProt Q932Y6). Briefly: Ki and modality of VIM-2 inhibitors – biochemical, probe results, mechanism study, late-stage follow-up, panel member Nitrocefin-based VIM2 Inhibition Assay (AID 2128).
Assay [15] deals with T6, Beta Lactamase. In words: Ki and modality of VIM-2 inhibitors – biochemical, probe results, mechanism study, late-stage follow-up, panel member Nitrocefin-based IMP1 Inhibition Counterscreen (AID 2128).
Assay [16] can be described thus: viability loss in human Jurkat cells – cell-based, luminescence, cytotoxicity control for P. falciparum gametocyte viability project, dose response (AID 1117277).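 Also: potency reflects loss of cellular ATP meaning fewer viable cells.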 The assay is classed as functional.
The target of assay [17] is T7, Small ubiquitin-related modifier 1 (Homo sapiens, UniProt P63165). In words: SUMO1 protein interaction blockers, potency – biochemical, fluorescence polarization, uHTS hits, dose response (AID 624382). Conditions: read-out: IC50_Mean. The assay is classed as functional.
Assay [18] in a line: viability inhibitors of stage V gametocytes – luminescence, dose response (AID 1117278).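 Also: gametocytes exposed to compound for 24 hours.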 The assay is classed as functional, cell-based.
Assay [19] concerns the target T7, Small ubiquitin-related modifier 1. Briefly: SUMO1 protein-protein binding blockers, potency – biochemical, FRET, dose response (AID 624383). It counts as functional. Conditions: read-out: IC50_Mean.
Assay [20] is described as follows: nonselective StAR promoter luciferase inhibitors – cell-based, luminescence, luciferase reporter, counter-screen for LRH-1 inverse agonist project, dose response (AID 651969). The assay is classed as functional. In general terms: A reporter such as luciferase makes a cellular process visible.
The target of a further assay is Steroidogenic factor 1 (Homo sapiens, UniProt Q13285). Briefly: Counterscreen for inverse agonists of the liver receptor homolog-1 (LRH-1; NR5A2): Luminescence-based cell-based high throughput dose response assay to identify inverse agonists of the Steroidogenic Factor 1 Nuclear Receptor (SF1; NR5A1). The assay is classed as functional.
The target in assay [21] is Nuclear receptor subfamily 5 group A member 2 (Homo sapiens, UniProt O00482). It counts as functional, cell-based.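 Also: HEK293T cells transfected with LRH-1 and a StAR promoter luciferase reporter; potency for inhibitors that lower LRH-1 driven reporter light.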

On to `Cc1ccc(NC(=O)NNC(=O)c2cc3ccccc3cc2O)cc1`, for which the IC50 at Albumin is > 94.1 µM (inactive). Besides, the EC50 is 13 µM (active) in assay [1], > 100 µM (inactive) in assay [2], 9.83 µM (active) in assay [3] and 14.9 µM (active) in [4].
As for `O=C(Nc1ccc2nc(-c3cccs3)c(-c3cccs3)nc2c1)N1CCCCC1`, the EC50 in [5] is 6.9 µM (active); on Lethal factor, 6.7 µM (active); in [6], 6.1 µM (active); in assay [7], 4.6 µM (active).
With `O=C(C[C@@H]1C[C@H]2c3cc(NS(=O)(=O)c4ccc(F)cc4)ccc3O[C@H]2[C@H](CO)O1)NCc1ccc(Oc2ccccc2)cc1`, the figures for the AbsAC35 in [8] and in assay [9] were 42.88 µM and 65.62 µM, respectively.
As for `O=c1[nH]c2c(s1)C(c1cccnc1)C1C3CCC(C3)C1S2` (centres undefined), the IC50 is > 59.6 µM (inactive) at Beta-lactamase [10]; > 59.6 µM (inactive) on Beta-lactamase [11]; > 59.6 µM (inactive) on Beta-lactamase [12]; > 60 µM (active) on Beta-lactamase [13]; 0.223 µM (active) at Beta Lactamase [14]; > 60 µM (inactive) at Beta Lactamase [15].
Take `Cc1ccc(N2C(=S)SC3CS(=O)(=O)CC32)cc1` (centres undefined): the IC50 in [16] was > 83.2 µM (inactive); in assay [17], > 66.6 µM (inactive); in assay [18], > 109 µM (inactive); in assay [19], 100 µM (inactive).
`O=C(COC(=O)CCN1C(=O)C2CC=CCC2C1=O)NCCc1ccc(F)cc1` (centres undefined): the results for the IC50 (in [20]; at Steroidogenic factor 1; in assay [21]) were 35.9 µM (inactive), 2.33 µM (active) and 19.1 µM (inactive), respectively.
